Assay [1] deals with HCV replicon cells. Description: HCV replicon FRET / luciferase assay. It is filed as cell-based. As to conditions: 50% reduction in FRET or luciferase activity in HCV replicon cells, read-out: EC50. A digest of the protocol: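 HCV replicon cells (with or without Renilla luciferase reporter) incubated with titrated compounds at 37° C; cytotoxicity read by Alamar blue. Replicon activity then read by NS3 cleavage of EDANS/DABCYL FRET peptide (20 μM final, 340/490 nm kinetic) or by luciferase; background from highest control-inhibitor wells subtracted; EC50 = concentration giving 50% signal reduction.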

The target in assay [2] is T1, HCV NS5B (Hepatitis C virus genotype 1b, UniProt Q9WMX2).
T1 construct: The protein was expressed with an 18 amino acid C-terminal truncation to enhance the solubility; made in house; host or cells: E. coli BL21(DE3)
Put plainly: HCV NS5B RdRp enzyme assay (standard / modified). As to conditions: HCV RdRp genotype 1b; standard or modified assay not specified; read-out: IC50. It is filed as biochemical. Put shortly:
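Genotype 1b NS5B, 18-aa C-terminal truncation, E. coli-expressed; polyA template with biotin-oligo-dT12 primer, 3H-UTP (0.29 μM UTP), pH 7.5 Hepes, 2% DMSO, 30 °C, SPA read. Standard: 28 nM enzyme, 6 nM template, 180 nM primer, 60 min. Modified: 1.75 nM enzyme, 0.36 nM template, 20 nM bead-precaptured primer, 4 h; IC50 from seven concentrations, four-parameter fit.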

Where two headings read alike, the source gives them in different places.

T1 sequence (Q9WMX2 2420-2992): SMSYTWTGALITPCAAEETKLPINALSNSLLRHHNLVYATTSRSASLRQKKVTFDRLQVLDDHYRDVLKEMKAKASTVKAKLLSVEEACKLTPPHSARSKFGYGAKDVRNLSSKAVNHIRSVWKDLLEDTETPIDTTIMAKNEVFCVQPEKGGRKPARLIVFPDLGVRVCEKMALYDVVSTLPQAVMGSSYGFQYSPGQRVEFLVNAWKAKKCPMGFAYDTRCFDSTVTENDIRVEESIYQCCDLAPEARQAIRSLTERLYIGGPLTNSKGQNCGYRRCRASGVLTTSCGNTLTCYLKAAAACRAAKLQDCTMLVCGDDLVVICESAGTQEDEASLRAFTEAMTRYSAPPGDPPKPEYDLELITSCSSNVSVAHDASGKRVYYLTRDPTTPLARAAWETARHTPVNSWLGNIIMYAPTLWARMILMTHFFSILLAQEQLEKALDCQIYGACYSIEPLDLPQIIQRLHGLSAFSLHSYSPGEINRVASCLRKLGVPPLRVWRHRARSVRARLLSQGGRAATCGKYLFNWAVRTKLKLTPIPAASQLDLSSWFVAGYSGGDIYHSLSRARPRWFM

Turning to `COc1ccc2c(c1)C1CC1(C(=O)N1CC3(C)CN(C)CC(C)(C1)C3)Cn1c-2c(C2CCCCC2)c2ccc(C(=O)NS(C)(=O)=O)cc21` (stereo not drawn), the EC50 in assay [1] (Hepatitis C virus) lay within 2.4 to 500 nM. Besides, the IC50 in assay [2] lay within 2.4 to 500 nM.
On to `COc1ccc2c(c1)C1CC1(C(=O)N1C3CN(C)CC1CN(Cc1ccccc1)C3)Cn1c-2c(C2CCCCC2)c2ccc(C(=O)NS(=O)(=O)N(C)C)cc21` (stereo not drawn), for which the EC50 in assay [1] (Hepatitis C virus) was in the range of 2.4 to 500 nM. In addition, the IC50 in assay [2] was 2.4 to 500 nM.
For the compound `COc1ccc2c(c1)[C@@H]1C[C@]1(C(=O)N1CC3CCC1CN3C)Cn1c-2c(C2CCCCC2)c2ccc(C(=O)NS(=O)(=O)N(C)C)cc21` (stereo partly drawn), the EC50 in assay [1] (Hepatitis C virus) was in the range of 2.4 to 500 nM. In addition, the IC50 in assay [2] lay in the range of 2.4 to 500 nM.
For the compound `COc1ccc2c(c1)C1CC1(C(=O)N1C3CC1CN(Cc1ccccc1)C3)Cn1c-2c(C2CCCCC2)c2ccc(C(=O)NS(=O)(=O)CC(C)C)cc21` (stereo not drawn), in assay [1] (Hepatitis C virus), the concentration giving a half-maximal response (EC50) was in the range of 2.4 to 500 nM. In assay [2], the IC50 lay within 2.4 to 500 nM.
`COc1ccc2c(c1)C1CC1(C(=O)N1CCN3CCC1CC3)Cn1c-2c(C2CCCCC2)c2ccc(C(=O)NS(=O)(=O)C3CC3)cc21` (stereo not drawn) [drawing 71]: the concentration giving a half-maximal response (EC50) in assay [1] lay within 2.4 to 500 nM. Further, the IC50 in assay [2] was in the range of 2.4 to 500 nM.
`COc1ccc2c(c1)C1CC1(C(=O)N1C[C@H]3C[C@@H]1CN3CC(C)C)Cn1c-2c(C2CCCCC2)c2ccc(C(=O)NS(N)(=O)=O)cc21` (stereo partly drawn): the EC50 in assay [1] (Hepatitis C virus) lay within 2.4 to 500 nM. In addition, in assay [2], the IC50 was 2.4 to 500 nM.
Regarding `COc1ccc2c(c1)C1CC1(C(=O)N1CC3(C)CN(C)CC(C)(C1)C3)Cn1c-2c(C2CCCCC2)c2ccc(C(=O)NS(=O)(=O)N(C)C)cc21` (stereo not drawn), in assay [1] (Hepatitis C virus), the EC50 is 2.4 to 500 nM. Moreover, the IC50 in assay [2] lay within 2.4 to 500 nM.
`CCC(C)S(=O)(=O)NC(=O)c1ccc2c(C3CCCCC3)c3n(c2c1)CC1(C(=O)N2C4CN(C)CC2CN(Cc2ccccc2)C4)CC1c1cc(OC)ccc1-3` (stereo not drawn): the EC50 in assay [1] (Hepatitis C virus) fell in the range of 2.4 to 500 nM. The IC50 in assay [2] lay within 2.4 to 500 nM.
With `COc1ccc2c(c1)C1CC1(C(=O)N1CC3CCC1CN3)Cn1c-2c(C2CCCCC2)c2ccc(C(=O)NS(=O)(=O)CC(F)(F)F)cc21` (stereo not drawn), the EC50 in assay [1] (Hepatitis C virus) was greater than 1000 nM. Moreover, the IC50 in assay [2] lay in the range of 2.4 to 500 nM.
The corresponding values for `COc1ccc2c(c1)C1CC1(C(=O)N1C[C@H]3C[C@@H]1CN3CC(C)C)Cn1c-2c(C2CCCCC2)c2ccc(C(=O)NS(=O)(=O)C3CC3)cc21` (stereo partly drawn) are 2.4 to 500 nM and 2.4 to 500 nM.
The corresponding values for `COc1ccc2c(c1)C1CC1(C(=O)N1C3CCCC1CN(C)C3)Cn1c-2c(C2CCCCC2)c2ccc(C(=O)NS(=O)(=O)C3CC3)cc21` (stereo not drawn) are 2.4 to 500 nM and 2.4 to 500 nM.
Turning to `COc1ccc2c(c1)C1CC1(C(=O)N1C[C@@H]3C[C@H]1CN3C)Cn1c-2c(C2CCCCC2)c2ccc(C(=O)NS(=O)(=O)C3CC3)cc21` (stereo partly drawn) [drawing 53], in assay [1], the EC50 lay within 2.4 to 500 nM. Besides, the IC50 in assay [2] is 2.4 to 500 nM.
For the compound `COc1ccc2c(c1)C1CC1(C(=O)N1C[C@@H]3C[C@H]1CN3CC(C)C)Cn1c-2c(C2CCCCC2)c2ccc(C(=O)NS(=O)(=O)C(C)C)cc21` (stereo partly drawn) [drawing 95], the EC50 in assay [1] lay within 2.4 to 500 nM. Also, the IC50 in assay [2] fell in the range of 2.4 to 500 nM.
Regarding `COc1ccc2c(c1)[C@@H]1C[C@]1(C(=O)N1C3CCCC1CN(C)C3)Cn1c-2c(C2CCCCC2)c2ccc(C(=O)NS(=O)(=O)N(C)C)cc21`, the EC50 in assay [1] (Hepatitis C virus) was in the range of 2.4 to 500 nM. Besides, the IC50 in assay [2] was in the range of 2.4 to 500 nM.
With `COc1ccc2c(c1)[C@@H]1C[C@]1(C(=O)N1C[C@@H]3C[C@H]1CN3C(=O)OC(C)(C)C)Cn1c-2c(C2CCCCC2)c2ccc(C(=O)NS(=O)(=O)N(C)C)cc21`, the EC50 in assay [1] (Hepatitis C virus) lay within 2.4 to 500 nM. For the same compound, the IC50 in assay [2] was in the range of 2.4 to 500 nM.
Turning to `CCN1C[C@H]2C[C@@H]1CN2C(=O)C12CC1c1cc(OC)ccc1-c1c(C3CCCCC3)c3ccc(C(=O)NS(N)(=O)=O)cc3n1C2` (stereo partly drawn), the EC50 in assay [1] (Hepatitis C virus) is 2.4 to 500 nM. The IC50 in assay [2] lay within 2.4 to 500 nM.
For the compound `COc1ccc2c(c1)[C@@H]1C[C@]1(C(=O)N1CC3CC(C1)N3C)Cn1c-2c(C2CCCCC2)c2ccc(C(=O)NS(=O)(=O)N(C)C)cc21`, the EC50 in assay [1] (Hepatitis C virus) is 2.4 to 500 nM. In addition, in assay [2], the IC50 lay within 2.4 to 500 nM.
Turning to `CCN(C)S(=O)(=O)NC(=O)c1ccc2c(C3CCCCC3)c3n(c2c1)CC1(C(=O)N2C4CC2CN(C)C4)CC1c1cc(OC)ccc1-3` (stereo not drawn), the EC50 in assay [1] (Hepatitis C virus) fell in the range of 2.4 to 500 nM. In addition, in assay [2], the IC50 lay within 2.4 to 500 nM.
For the compound `COc1ccc2c(c1)C1CC1(C(=O)N1C3COCC1CN(C(C)=O)C3)Cn1c-2c(C2CCCCC2)c2ccc(C(=O)NS(=O)(=O)N(C)C)cc21` (stereo not drawn), the concentration giving a half-maximal response (EC50) in assay [1] (Hepatitis C virus) was in the range of 2.4 to 500 nM. Moreover, in assay [2], the IC50 fell in the range of 2.4 to 500 nM.
For the compound `CCN1C[C@H]2C[C@@H]1CN2C(=O)C12CC1c1cc(OC)ccc1-c1c(C3CCCCC3)c3ccc(C(=O)NS(C)(=O)=O)cc3n1C2` (stereo partly drawn), the EC50 in assay [1] (Hepatitis C virus) lay within 2.4 to 500 nM. The IC50 in assay [2] is 2.4 to 500 nM.
With `COc1ccc2c(c1)C1CC1(C(=O)N1CC3COCC(C1)N3)Cn1c-2c(C2CCCCC2)c2ccc(C(=O)NS(=O)(=O)N(C)C)cc21` (stereo not drawn), the EC50 in assay [1] (Hepatitis C virus) is 2.4 to 500 nM. For the same compound, the concentration for half-maximal inhibition (IC50) in assay [2] was in the range of 2.4 to 500 nM.
In the case of `COc1ccc2c(c1)[C@@H]1C[C@]1(C(=O)N1C3CCCC1C(=O)N(C)C3=O)Cn1c-2c(C2CCCCC2)c2ccc(C(=O)NS(=O)(=O)N(C)C)cc21`, the EC50 in assay [1] (Hepatitis C virus) was in the range of 2.4 to 500 nM. In assay [2], the IC50 lay in the range of 2.4 to 500 nM.
With `COc1ccc2c(c1)[C@H]1C[C@@]1(C(=O)N1CC3CC1CN3C)Cn1c-2c(C2CCCCC2)c2ccc(C(=O)NS(=O)(=O)N(C)C)cc21` (stereo partly drawn), the EC50 in assay [1] (Hepatitis C virus) is 2.4 to 500 nM. In addition, in assay [2], the IC50 was 2.4 to 500 nM.
For `COc1ccc2c(c1)C1CC1(C(=O)N1C3CN(C)CC1CN(C)C3)Cn1c-2c(C2CCCCC2)c2ccc(C(=O)NS(=O)(=O)N(C)C)cc21` (stereo not drawn), in assay [1] (Hepatitis C virus), the EC50 is 2.4 to 500 nM. Further, the IC50 in assay [2] is 2.4 to 500 nM.
As for `CCN1C[C@H]2C[C@@H]1CN2C(=O)C12CC1c1cc(OC)ccc1-c1c(C3CCCCC3)c3ccc(C(=O)NS(=O)(=O)N4CCC4)cc3n1C2` (stereo partly drawn), the EC50 in assay [1] (Hepatitis C virus) was in the range of 2.4 to 500 nM. Besides, in assay [2], the IC50 fell in the range of 2.4 to 500 nM.
As for `COc1ccc2c(c1)C1CC1(C(=O)N1[C@@H]3C[C@H]1CN(Cc1ccccc1)C3)Cn1c-2c(C2CCCCC2)c2ccc(C(=O)NS(=O)(=O)N(C)C)cc21` (stereo partly drawn), in assay [1] (Hepatitis C virus), the EC50 lay in the range of 2.4 to 500 nM. Moreover, the IC50 in assay [2] was 2.4 to 500 nM.
Take `COc1ccc2c(c1)C1CC1(C(=O)N1C3CC1CN(Cc1ccccc1)C3)Cn1c-2c(C2CCCCC2)c2ccc(C(=O)NS(=O)(=O)C(C)C)cc21` (stereo not drawn): the concentration giving a half-maximal response (EC50) in assay [1] (Hepatitis C virus) fell in the range of 2.4 to 500 nM. Besides, the IC50 in assay [2] fell in the range of 2.4 to 500 nM.
`COc1ccc2c(c1)C1CC1(C(=O)N1C3CC1CN(C)C3)Cn1c-2c(C2CCCCC2)c2ccc(C(=O)NS(=O)(=O)C3CCC3)cc21` (stereo not drawn): the EC50 in assay [1] (Hepatitis C virus) lay in the range of 2.4 to 500 nM. Besides, the IC50 in assay [2] is 2.4 to 500 nM.
Take `COc1ccc2c(c1)C1CC1(S(=O)(=O)N1C3CC1CN(C)C3)Cn1c-2c(C2CCCCC2)c2ccc(C(=O)NS(=O)(=O)C3CC3)cc21` (stereo not drawn): the EC50 in assay [1] (Hepatitis C virus) fell in the range of 2.4 to 500 nM. Besides, the IC50 in assay [2] is 2.4 to 500 nM.
For the compound `COc1ccc2c(c1)C1CC1(C(=O)N1C3COC[C@@H]1CN(C)C3)Cn1c-2c(C2CCCCC2)c2ccc(C(=O)NS(=O)(=O)C3CCCC3)cc21` (stereo partly drawn), the EC50 in assay [1] (Hepatitis C virus) is 2.4 to 500 nM. For the same compound, the IC50 in assay [2] was in the range of 2.4 to 500 nM.
As for `COc1ccc2c(c1)C1CC1(C(=O)N1CC3CN(Cc4ccccc4)CC(C1)N3Cc1ccccc1)Cn1c-2c(C2CCCCC2)c2ccc(C(=O)NS(=O)(=O)N(C)C)cc21` (stereo not drawn), the EC50 in assay [1] (Hepatitis C virus) lay within 500 to 5000 nM. The IC50 in assay [2] lay in the range of 2.4 to 500 nM.
The corresponding values for `COc1ccc2c(c1)C1CC1(C(=O)N1C[C@H]3C[C@@H]1CN3C(=O)OC(C)(C)C)Cn1c-2c(C2CCCCC2)c2ccc(C(=O)NS(=O)(=O)C(C)C)cc21` (stereo partly drawn) are 2.4 to 500 nM and 2.4 to 500 nM.
For `COc1ccc2c(c1)C1CC1(C(=O)N1C[C@H]3C[C@@H](C1)c1cccc(=O)n1C3)Cn1c-2c(C2CCCCC2)c2ccc(C(=O)NS(=O)(=O)N(C)C)cc21` (stereo partly drawn) the same measures were 2.4 to 500 nM and less than 70 nM.

Values taken from patent US7547690B2, “Compounds for the treatment of Hepatitis C” (Bristol-Myers Squibb Company, priority 2007, dated 2009).
